Assay results from article PMC8671332 (Journal of cellular biochemistry, 2021).

How the values were obtained:
[1] = molecular target: Na+/K+-ATPase (α1β1) (Sus scrofa, UniProt P05024); assay: biochemical
[2] = system: plasma membrane Ca2+-ATPase (PMCA; isoform not resolved); assay type: cell-based

C[C@@H]1O[C@@H](O[C@H]2CC[C@@]3(C)[C@H](CC[C@@H]4[C@@H]3CC[C@]3(C)[C@@H](C5=CC(=O)OC5)CC[C@]43O)C2)[C@H](O)[C@H](O)[C@H]1O [compound 1, digitoxigenin-α-L-rhamno-pyranoside]
IC50 [1]: 12 ± 1 nM

C[C@@H]1O[C@@H](O[C@H]2CC[C@@]3(C)[C@H](CC[C@@H]4[C@@H]3CC[C@]3(C)[C@@H](C5=CC(=O)OC5)CC[C@]43O)C2)CC[C@H]1O [compound 2, digitoxigenin-α-L-amiceto-pyranoside]
% inhibition at 100 nM [2]: ~ 25% inhibition at 100
IC50 [1]: 41 ± 3 nM
